Patent US6489320B1, “5, 5-disubstituted-1, 5-dihydro-4, 1-benzoxazepin-2 (3H)-ones useful as HIV reverse transcriptase inhibitors” (Bristol-Myers Squibb Pharma Company, priority 1997, dated 2002)
Converted amounts (≈) assume the structure as drawn.

test system: HIV-1 (RF); assay: HIV RNA assay: microplate based compound evaluation in HIV-1 infected MT-2 cells; assay type: cell-based; details: Human immunodeficiency virus 1, MT2, 72 h; HIV-1 (RF) infected MT-2 cells, 3 days; virus dilutions selected to give this value (standardization of inoculum); read-out: IC90 value (concentration of compound required to reduce the HIV RNA level by 90%)
Method: Plasmid pDAB 72 containing both gag and pol sequences of BH10 (bp 113-1816) cloned into PTZ 19R was prepared according to Erickson-Viitanen et al. AIDS Research and Human Retroviruses 1989, 5, 577. The plasmid was linearized with Bam HI prior to the generation of in vitro RNA transcripts using the Riboprobe Gemini system II kit (Promega) with T7 RNA polymerase. Synthesized RNA was purified by treatment with RNase free DNAse (Promega), phenol-chloroform extraction, and ethanol precipitation. RNA transcripts were dissolved in water, and stored at −70° C. The concentration of RNA was determined from the A260.
Biotinylated capture probes were purified by HPLC after synthesis on an Applied Biosystems (Foster City, Calif.) DNA synthesizer by addition of biotin to the 5′ terminal end of the oligonucleotide, using the biotin-phosphoramidite reagent of Cocuzza, Tet. Lett. 1989, 30, 6287. […]
MT-2 and MT-4 cells were maintained in RPMI 1640 supplemented with 5% fetal calf serum (FCS) for MT-2 cells or 10% FCS for MT-4 cells, 2 mM L-glutamine and 50 μg/mL gentamycin, all from Gibco. […] Infectious titers of HIV-1(RF) stocks were 1-3×10^7 PFU (plaque forming units)/mL as measured by plaque assay on MT-2 cells (see below). […]

IC90 | Structure (SMILES)
0.2 µg/mL (≈ 0.947 µM) | Nc1ccn([C@H]2CC[C@@H](CO)O2)c(=O)n1 [ddC, 2′,3′-dideoxycytidine]

test system: not given; assay: not given; details: not given

melting point | Structure (SMILES)
148 to 149 °C | CC(C)/C=C/C1(C(F)(F)F)OCC(=O)Nc2ccc(Cl)cc21 (stereo not drawn) [Example 20, trans-7-Chloro-5-(2-isopropylethenyl)-1,5-dihydro-5-(trifluoromethyl)-4,1-benzoxazepin-2(3H)-one]
145 to 146 °C | C[C@@H]1O[C@](C#CC2CC2)(C(F)(F)F)c2cc(Cl)ccc2NC1=O [Example 36, (+)-(3S,5S)-7-Chloro-5-cyclopropylethynyl-1,5-dihydro-3-methyl-5-(trifluoromethyl)-4,1-benzoxazepin-2(3H)-one]
175 to 175.5 °C | C[C@@H]1O[C@](/C=C/C2CC2)(C(F)(F)F)c2cc(Cl)ccc2NC1=O [Example 39, (+)-(3S,5S)-trans-7-Chloro-5-(2-cyclopropylethenyl)-1,5-dihydro-3-methyl-5-(trifluoromethyl)-4,1-benzoxazepin-2(3H)-one]

The next lines start with the compound.

Structure (SMILES) | melting point
COc1ccc2c(c1)C(CCC(C)C)(C(F)(F)F)OCC(=O)N2 (stereo not shown) [Example 21, 7-Methoxy-5-(3-methylbutyl)-1,5-dihydro-5-(trifluoromethyl)-4,1-benzoxazepin-2(3H)-one] | 129 to 130 °C
O=C1COC(C#Cc2cccnc2)(C(F)(F)F)c2cc(Cl)ccc2N1 (stereo not shown) [Example 24, 7-Chloro-5-(3-pyridylethynyl)-1,5-dihydro-5-(trifluoromethyl)-4,1-benzoxazepin-2(3H)-one] | 219 to 221 °C
CC(C)/C=C/C1(C(F)(F)F)OCC(=O)Nc2ccc(F)c(F)c21 (stereo not drawn) [Example 27, trans-6,7-Difluoro-5-(2-isopropylethenyl)-1,5-dihydro-5-(trifluoromethyl)-4,1-benzoxazepin-2(3H)-one] | 159 to 160 °C
